Laboratory results: patent publication US8772504B2, “Substituted benzoxazole, benzimidazole, oxazolopyridine and imidazopyridine derivatives as gamma secretase modulators” (Janssen Pharmaceuticals, Inc., priority 2009, dated 2014)

Columns and labels:
Aβ42 [1] = assay: Screening for γ-secretase-modulating activity, Method 1: Aβ42 sandwich ELISA on SKNBE2 cell media; type: cell-based; details: Homo sapiens, SKNBE2 cells carrying APP 695 wild type
Outline: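 SKNBE2 cells expressing wild-type APP695 were treated with compound for 18 h in Ultraculture/1% glutamine. Secreted Aβ42 was quantified by sandwich ELISA (C-terminal capture, biotinylated 3D6, TMB, 450 nm), with WST-1 used as a toxicity check. IC50 was derived from 4-parameter fits of % inhibition or % of untreated control.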

Aβtotal [2] = assay: Screening for γ-secretase-modulating activity, Method 1: Aβtotal sandwich ELISA on SKNBE2 cell media; type: cell-based; details: Homo sapiens, SKNBE2 cells carrying APP 695 wild type
Outline: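 SKNBE2 cells expressing wild-type APP 695 were treated with compound for 18 hours. Aβtotal in the medium was measured by sandwich ELISA (6E10 capture, biotinylated 4G8 detection, fluorogenic peroxidase read-out). IC50 came from a 4-parameter fit of % inhibition with top/bottom fixed at 100/0 and Hill slope 1, or as averaged IC50 from % of untreated control.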

Aβ42 [3] = assay: Screening for γ-secretase-modulating activity, Method 2: Aβ42 Alphalisa on SKNBE2 cell supernatant; type: cell-based; details: Method 2, Table 3c, SKNBE2 cells carrying APP 695 wild type, overnight incubation
Outline: (§1)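 SKNBE2 cells expressing wild-type APP695, plated at 10^4 cells/well with compound at several concentrations and incubated overnight at 37° C. Aβ42 (C-terminal capture, N-terminal biotinylated detection) and Aβtotal (N-terminal/4G8 pair) measured in supernatant by AlphaLISA. IC50 from 4-parameter fit of percent of compound-free control.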

Aβtotal [4] = assay: Screening for γ-secretase-modulating activity, Method 2: Aβtotal Alphalisa on SKNBE2 cell supernatant; type: cell-based; details: Method 2, Table 3c, SKNBE2 cells carrying APP 695 wild type, overnight incubation
Outline: as §1

Aβ42 [5] = assay: In vivo efficacy Method 1: brain soluble Aβ42 by ELISA; parameters: species or system mouse; details: Table 4a, single oral dose, overnight fasted animals, sacrificed after 4 h, soluble fraction of brain homogenates
Source text: (§2) To determine whether acute administration of an Aβ42 lowering agent would reduce Aβ42 levels in vivo, non-transgenic rodents, e.g. mice or rats were used. Alternatively, two to three month old Tg2576 mice expressing APP695 containing the “Swedish” variant can be used or a transgenic mouse model developed by Dr. Fred Van Leuven (K.U. Leuven, Belgium) and co-workers, with neuron-specific expression of a clinical mutant of the human amyloid precursor protein [V717I] […] Young transgenic mice have high levels of Aβ in the brain but no detectable Aβ deposition. At approximately 6-8 months of age, the transgenic mice start to display spontaneous, progressive accumulation of β-amyloid (Aβ) in the brain, eventually resulting in amyloid plaques within the subiculum, hippocampus and cortex. Animals treated with the Aβ42 lowering agent were examined and compared to those untreated or treated with vehicle and brain levels of soluble Aβ42 and total Aβ would be quantitated by standard techniques, for example, using ELISA.
(§3) A typical protocol for measuring Aβ42 lowering in vivo is shown but it is only one of many variations that could be used to optimize the levels of detectable Aβ. For example, Aβ42 lowering compounds were formulated in 20% of Captisol® (a sulfobutyl ether of β-cyclodextrin) in water or 20% hydroxypropyl β cyclodextrin. The Aβ42 lowering agents were administered as a single oral dose or by any acceptable route of administration to overnight fasted animals. After 4 h, the animals were sacrificed and Aβ42 levels were analysed.
(§4) Blood was collected by decapitation and exsanguinations in EDTA-treated collection tubes. Blood was centrifuged at 1900 g for 10 minutes (min) at 4° C. and the plasma recovered and flash frozen for later analysis. The brain was removed from the cranium and hindbrain. The cerebellum was removed and the left and right hemisphere were separated. The left hemisphere was stored at −18° C. for quantitative analysis of test compound levels. The right hemisphere was rinsed with phosphate-buffered saline (PBS) buffer and immediately frozen on dry ice and stored at −80° C. until homogenization for biochemical assays.
(§5) All samples were sonicated for 30 seconds on ice at 20% power output (pulse mode). Homogenates were centrifuged at 221.300×g for 50 min. The resulting high speed supernatants were then transferred to fresh tubes and were optionally further purified before the next step. A portion of the supernatant was neutralized with 10% 0.5 M Tris-HCl and this was used to quantify Aβtotal.
(§6) The obtained supernatants were purified with Water Oasis HLB reverse phase columns (Waters Corp., Milford, Mass.) to remove non-specific immunoreactive material from the brain lysates prior subsequent Aβ detection. Using a vacuum manifold, all solutions were passed through the columns at a rate of approximately 1 ml per min, so the vacuum pressure was adjusted accordingly throughout the procedure. Columns were preconditioned with 1 ml of 100% MeOH, before equilibration with 1 ml of H2O, Non-neutralized brain lysates were loaded onto the columns. The loaded samples were then washed twice with the first wash performed with 1 ml of 5% MeOH, and the second wash with 1 ml of 30% MeOH. Finally, the Aβ was eluted from the columns and into 100×30 mm glass tubes, with a solution of 90% MeOH with 2% NH4OH. The eluate was then transferred into 1.5 ml tubes and concentrated in a speed-vac concentrator on high heat for about 1.5-2 h at 70° C. The concentrated Aβ was then resuspended in UltraCULTURE General Purpose Serum-Free Medium (Cambrex Corp., Walkersville, Md.) plus Protease Inhibitors added.
To quantify the amount of Aβ42 in the soluble fraction of the brain homogenates, commercially available Enzyme-Linked-Immunosorbent-Assay (ELISA) kits were used (e.g. Innotest® β-Amyloid(1-42), Innogenetics N.V., Ghent, Belgium). The Aβ42 ELISA was performed using the plate provided with the kit only.

Aβtotal [6] = assay: In vivo efficacy Method 1: brain soluble Aβtotal by ELISA; parameters: species or system mouse; details: Table 4a, single oral dose, overnight fasted animals, sacrificed after 4 h, soluble fraction of brain homogenates
Source text: as §2, §3, §4, §5
as §6, with “added. […]” for “added.”

Aβ42 [7] = assay: In vivo efficacy Method 2: brain soluble Aβ42 by ELISA; parameters: species or system mouse; details: Table 4b, single oral dose, overnight fasted non-transgenic animals, sacrificed after 4 h, soluble fraction of brain homogenates
Source text: (§7) To determine whether acute administration of an Aβ42 lowering agent would reduce Aβ42 levels in vivo, non-transgenic rodents, e.g. mice or rats were used. Animals treated with the Aβ42 lowering agent were examined and compared to those untreated or treated with vehicle and brain levels of soluble Aβ42 and total Aβ were quantitated by standard techniques, for example, using ELISA. Treatment periods varied from hours (h) to days and were adjusted based on the results of the Aβ42 lowering once a time course of onset of effect could be established.
as §3, §4
(§8) Mouse brains from non-transgenic animals were resuspended in 8 volumes of 0.4% DEA (diethylamine)/50 mM NaCl containing protease inhibitors (Roche-11873580001 or 04693159001) per gram of tissue, e.g. for 0.158 g brain, add 1.264 ml of 0.4% DEA. All samples were homogenized in the FastPrep-24 system (MP Biomedicals) using lysing matrix D (MPBio #6913-100) at 6 m/s for 20 seconds. Homogenates were centrifuged at 221.300×g for 50 min. The resulting high speed supernatants were then transferred to fresh eppendorf tubes. Nine parts of supernatant were neutralized with 1 part 0.5 M Tris-HCl pH 6.8 and used to quantify Aβtotal and Aβ42.
(§9) To quantify the amount of Aβtotal and Aβ42 in the soluble fraction of the brain homogenates, Enzyme-Linked-Immunosorbent-Assays were used . Briefly, the standards (a dilution of synthetic Aβ1-40 and Aβ1-42, Bachem) were prepared in 1.5 ml Eppendorf tube in Ultraculture, with final concentrations ranging from 10000 to 0.3 pg/ml. The samples and standards were co-incubated with HRPO-labelled N-terminal antibody for Aβ42 detection and with the biotinylated mid-domain antibody 4G8 for Aβtotal detection. 50 μl of conjugate/sample or conjugate/standards mixtures were then added to the antibody-coated plate (the capture antibodies selectively recognize the C-terminal end of Aβ42, antibody JRF/cAβ42/26, for Aβ42 detection and the N-terminus of Aβ, antibody JRF/rAβ/2, for Aβtotal detection). The plate was allowed to incubate overnight at 4° C. in order to allow formation of the antibody-amyloid complex. Following this incubation and subsequent wash steps the ELISA for Aβ42 quantification was finished by addition of Quanta Blu fluorogenic peroxidase substrate according to the manufacturer's instructions (Pierce Corp., Rockford, Ill.). A reading was performed after 10 to 15 min (excitation 320/emission 420).
In this model at least 20% Aβ42 lowering compared to untreated animals would be advantageous.

Aβtotal [8] = assay: In vivo efficacy Method 2: brain soluble Aβtotal by ELISA; parameters: species or system mouse; details: Table 4b, single oral dose, overnight fasted non-transgenic animals, sacrificed after 4 h, soluble fraction of brain homogenates
Source text: as §7, §3, §4, §8, §9
For Aβtotal detection, a Streptavidine-Peroxidase-Conjugate was added, followed 60 min later by an additional wash step and addition of Quanta Blu fluorogenic peroxidase substrate according to the manufacturer's instructions (Pierce Corp., Rockford, Ill.). A reading was performed after 10 to 15 min (excitation 320 nm/emission 420 nm).

[9] = Table 3a, 18 hours, XLfit, top/bottom fixed to 100 and 0, hill slope 1
[10] = Table 3b, non-linear regression of % of control, averaged IC50 values

| SMILES | IC50 (Aβ42 [3]; Homo sapiens) [nM] | IC50 (Aβtotal [4]; Homo sapiens) [nM] | IC50 (Aβ42 [3]) [nM] | IC50 (Aβtotal [4]) [nM] | Aβ42 (% Ctrl) _Mean (Aβ42 [7]) [% Ctrl] | Aβtotal (% Ctrl) _Mean (Aβtotal [8]) [% Ctrl] | also measured |
| --- | --- | --- | --- | --- | --- | --- | --- |
| COc1cc(Nc2cccc3c2nc(N2CCC(F)(F)CC2)n3C)ccc1-n1cnc(C)c1 [Compound 12] | – | – | – | – | – | – | IC50 (Aβ42 [1]; [9]): 84 nM; IC50 (Aβ42 [1]; [10]): 76 nM; IC50 (Aβtotal [2]; [9]): > 3000 nM; IC50 (Aβtotal [2]; [10]): > 3000 nM; melting point: 81.2 °C |
| COc1nc(Nc2cc(C(C)C)nc3c2nc(-c2ccc(F)cc2)n3C)ccc1-n1cnc(C)c1 [Compound 111] | 4 | 4790 | – | – | – | – | melting point: 172.3 °C |
| COc1cc(-c2nc3c(Nc4ccc(-n5cnc(C)c5)c(OC)n4)cccc3n2C(C)C)ccc1Cl [Compound 131] | – | – | 5 | 8130 | – | – | Aβ42 (% Ctrl) _Mean (Aβ42 [5]): 51 % Ctrl; Aβtotal (% Ctrl) _Mean (Aβtotal [6]): 84 % Ctrl |
| COc1cc(-c2nc3c(Nc4ccc(-n5cnc(C)c5)c(F)c4)nc(C)cc3n2C)ccc1Cl [Compound 136] | – | – | 9 | > 10000 | 77 | 104 | – |
| CC(=O)Nc1cccc(-c2nc3c(Nc4ccc(-n5cnc(C)c5)c(F)c4)nc(C)cc3n2C)c1 [Compound 141] | 79 | > 10000 | – | – | – | – | melting point: 257.2 °C |
| Cc1cn(-c2ccc(Nc3nc(C)cc4c3nc(-c3cccc(N(C)C)c3)n4C)cc2F)cn1 [Compound 142] | – | – | 15 | 9330 | 73 | 98 | – |
| COc1nc(Nc2cccc3c2nc(-c2ccc(F)cc2)n3C(C)C)ccc1-n1cnc(C)n1 [Compound 162] | – | – | 5 | 5620 | 79 | 97 | – |
| COc1nc(Nc2cccc3c2nc(-c2cccc(C(F)(F)F)c2)n3C)ccc1-n1cnc(C)c1 [Compound 167] | – | – | 7 | 5250 | 46 | 84 | – |
| COc1nc(Nc2cccc3c2nc(-c2cccc(NC(C)=O)c2)n3C)ccc1-n1cnc(C)c1 [Compound 174] | 38 | 9550 | – | – | 90 | 104 | – |
| COc1cc(-c2nc3c(Nc4ccc(-n5cnc(C)c5)c(OC)n4)cccc3n2C)ccc1F [Compound 184] | 13 | > 10000 | – | – | 31 | 88 | – |
| COc1nc(Nc2cccc3c2nc(-c2cc(C(F)(F)F)ccc2F)n3C)ccc1-n1cnc(C)c1 [Compound 187] | 36 | 7240 | – | – | 75 | 96 | – |
| COc1nc(Nc2cccc3c2nc(-c2cccc(OC(F)(F)F)c2)n3C)ccc1-n1cnc(C)c1 [Compound 189] | – | – | 17 | 8320 | 48 | 95 | – |

Continued, in another order:

| IC50 (Aβ42 [3]; Homo sapiens) [nM] | IC50 (Aβtotal [4]; Homo sapiens) [nM] | IC50 (Aβ42 [3]) [nM] | IC50 (Aβtotal [4]) [nM] | SMILES | Aβ42 (% Ctrl) _Mean (Aβ42 [7]) [% Ctrl] | Aβtotal (% Ctrl) _Mean (Aβtotal [8]) [% Ctrl] | also measured |
| --- | --- | --- | --- | --- | --- | --- | --- |
| – | – | 5 | > 10000 | COc1cc(Nc2ccc(-n3cnc(C)c3)c(OC)n2)c2nc(-c3ccc(F)cc3)n(C)c2c1 [Compound 160] | 84 | 78 | – |
| – | – | 6 | 3720 | COc1nc(Nc2cccc3c2nc(-c2cc(F)cc(F)c2)n3C)ccc1-n1cnc(C)c1.Cl.Cl.O [Compound 165] | 44 | 85 | – |
| – | – | 12 | 8320 | COc1cc(OC)cc(-c2nc3c(Nc4ccc(-n5cnc(C)c5)c(OC)n4)cccc3n2C)c1.Cl.Cl.O [Compound 186] | 38 | 88 | – |
| – | – | 5 | > 10000 | COc1cc(Nc2ccc(-n3cnc(C)c3)c(OC)n2)c2nc(-c3ccc(F)cc3)n(C)c2n1 [Compound 202] | 82 | 102 | – |
